Results as given in patent US20200140826A1, “Maintenance and Expansion of Pancreatic Progenitor Cells” (AGENCY FOR SCIENCE, TECHNOLOGY AND RESEARCH, priority 2017, published 2020).

Columns and labels:
cPP cells [1] = assay: Omission of individual components from complete cPP culture medium on 3T3-J2 feeders (phase contrast, qRT-PCR); type: cell-based, human; details: for Effect of removing the component on cPP expansion, colony size and morphology: component individually omitted from complete medium, cPP cells cultured 6 days on 3T3-J2 feeders
Procedure: Gentle cell dissociation reagent (STEMCELL Technologies, 07174) was used to passage cPP cells as aggregates that were then seeded at a 1:6 split ratio onto a layer of 3T3-J2 feeders (0.5×10^6 to 1×10^6 cells/cm^2) in medium composed of advanced DMEM/F12 (Thermo Fisher Scientific, 21634010), 2 mM L-glutamine (Thermo Fisher Scientific, 25030), 100 U/mL penicillin/streptomycin (Thermo Fisher Scientific, 15140122), 1× N2 supplement (Thermo Fisher Scientific, 17502-048), 1× B27 supplement (Thermo Fisher Scientific, 17504-044), 30 nM dexamethasone (STEMCELL Technologies, 72092), 50 ng/mL EGF (R&D Systems, 236-EG-200), 50 ng/mL FGF10 (Source Bioscience, ABC144), 3 μM RA (Sigma, R2625), 10 μM SB431542 (Calbiochem, 616464), and 1 μM DAPT (Sigma, D5942). If plating single cPP cells, complete medium was supplemented with 10 μM Y27632 for the first 48 hr (Sigma, Y0503). Medium was completely replenished every 2-3 days.
RNA was isolated from samples using an RNeasy mini kit (Qiagen, cat # 74104) and reverse transcribed to generate cDNA using a high-capacity reverse transcription kit and random hexamer primers (Applied Biosystems, 4368814,1 μg RNA per 20 μL reaction). Quantitative RT-PCR was carried out using SYBR Select Mastermix (Applied Biosystems, 4472908). Data were analyzed using the ΔΔCT method, and normalized to expression of the housekeeping gene TBP in each sample.
To establish the roles played by the growth factors and small molecules in our culture media, each was removed individually and the effect on differentiation and proliferation was assessed.

cPP cells [2] = assay: Microbioreactor array (MBA) screening of cPP maintenance and proliferation; type: cell-based, human; details: relatively low concentration (1 μM) in cPP culture medium
Procedure: Microbioreactor arrays were used to screen the effects of combinations of exogenous signaling molecules on cPP cells. MBAs provide combinatorial mixing of input factors, combined with continuous flow of culture media over culture chambers. MBAs were autoclaved and filled with sterile PBS, then coated (2-4 h, room temperature) with a single 1 mL injection of hESC-qualified matrigel at the manufacturer's recommended concentration. cPP cells in suspension in complete medium at 5×10^6/mL were then seeded in the MBA, giving a surface density of 50×10^6cells/cm^2. Cells were allowed to attach for a total of 20 h, with a media exchange performed every 6 h. […] Nuclear segmentation and quantification of nuclear intensities of PDX1 and SOX9 then proceeded similarly as previously described.
To quantify the effect of exogenous signaling molecules on the maintenance and expansion of cPP cells, this study used a microbioreactor array (MBA) screening platform to measure differentiation and proliferation. […] The study then used an image-segmentation algorithm to identify individual nuclei and quantify immunofluorescence staining for PDX1 and SOX9, thereby enabling the determination of the percentage of double-positive cells following exposure to different growth factor regimes. […]

Compound	Effect of removing the component on cPP expansion, colony size and morphology (cPP cells [1])	Effect of removing the component on viability (cPP cells [1]; component removed from the culture media over multiple passages)	Effect on proliferation of cPP cells (cPP cells [2])
EGF: epidermal growth factor, growth factor in the cPP culture medium (50 ng/mL) (NSDSECPLSHDGYCLHDGVCMYIEALDKYACNCVVGYIGERCQYRDLKWWELR; Epidermal growth factor; UniProt P01133 971-1023, looked up)	prevented cPP expansion	–	–
C[C@H](NC(=O)Cc1cc(F)cc(F)c1)C(=O)N[C@H](C(=O)OC(C)(C)C)c1ccccc1 [DAPT]	did not significantly affect colony size or morphology in the short term	noticeable loss of viability	promotes proliferation of cPP cells
NC(=O)c1ccc(-c2nc(-c3ccc4c(c3)OCO4)c(-c3ccccn3)[nH]2)cc1 [SB431542]	caused colonies to detach from the feeder layer	–	–
